Experimental data taken from patent US6878697B2, “Phenylamino-pyrimidines and uses thereof” (Ariad Pharmaceuticals, Inc., priority 2001, dated 2005).

Assay: Hydroxyapatite assay (hydroxyapatite adsorption chromatography)
Assay type: physicochemical
Conditions: corrected retention K=(retention time-void time)/void on TSK-Gel HA 1000 HPLC column; linear gradient 10 mM to 500 mM sodium phosphate, 0.15 N NaCl, pH 6.8
Description: Hydroxyapatite is the principal mineral component of bone. Hydroxyapatite adsorption chromatography is used as an assay to evaluate the bone-targeting potential of both individual bone-targeting moieties (“monomers”) and of pharmaceuticals incorporating bone-targeting groups.
Method: The rentention time of a test compound is measured using a linear gradient from 10 mM sodium phosphate, 0.15 N NaCl, pH=6.8 to 500 mM sodium phosphate, 0.15 N NaCl, […] on a TSK-Gel HA 1000 high pressure liquid chromatography column (7.5 mm×75 mm). The rentention time of the compound is expressed in terms of K=(retention time-void time)/void. This K value is corrected using two reference compounds to correct from inter-column and inter-system variation to obtain a K′ value.
Reference Compounds: K′ values were determined for known bone targeted compounds, the bisphosphonate, alendronate and tetracycline.

## NCCCC(O)(P(=O)(O)O)P(=O)(O)O [Alendronate, alendronate]
  K′ value: 3.7
